Measurements from patent US20060148104A1, “Detection of ion channel or receptor activity” (Massachusetts Institute of Technology, priority 2004, published 2006).
“Also recorded” adds a separate entry of the source. Ends that are not written are not given here.

What was measured:
TRPV3-EGFP = test: whole-cell patch clamp recordings, HEK293T cells transiently transfected with TRPV3-EGFP; format: cell-based, Mouse; conditions: 100 μM 2APB
From the text: (§1) Cloning of TRPV3, TRPV1 and P2X2 into the EGFP-cc and EGFP-barstar vectors. The multiple cloning site (MCS) 3′ of the EGFP-C1 vector is not affected by the heptad repeat or barstar insertion described above, i.e., the restriction sites at the 3 prime end of EGFP are identical to the original EGFP-C1 clone. This MCS was used to clone each of three different ion channel subunits in-frame with the EGFP-heptad repeat module or EGFP-barstar module that had been inserted into the EGFP-C1 vector. Mouse TRPV3 cDNA was amplified either from total mouse cDNA or from plasmids containing the appropriate subunit sequence by PCR using the following primers: […]
(§2) Transient transfection of COS and HEK cells. COS or HEK cells were transfected using Lipofectamine 2000 (Invitrogen) according to the manufacture's protocol. In brief, 2 μg of the respective DNA plasmid were incubated for 30 min with 6 μl of Lipofectamine in 200 μl of Optimem medium (Gibco) at room temperature. Cells were incubated with the DNA-Lipofectamine complex for 3 h at 37 degrees Celsius in 500 μl Optimem medium. Afterwards the medium was replaced with DMEM containing 10% FCS. Cells were assayed for expression and activity of the engineered ion channels 24-48 h after transfection.
(§3) Characterization of functional activity of engineered ion channel subunits. […]

TRPV3-EGFP-cc [1] = test: whole-cell patch clamp recordings, HEK293T cells transiently transfected with TRPV3-EGFP-cc; format: cell-based, Mouse; conditions: 100 μM 2APB
From the text: as §1, §2, §3

COS cells = test: FRET-based calcium sensing inside living COS cells (quantum dots + Calcium Crimson); format: cell-based; conditions: 405 nm laser; COS cells with internalized quantum dots and Calcium Crimson
Protocol: Quantum dot nanoparticles with an absorption peak at ˜405 nm and an emission peak at ˜580 nm (“Birch Yellow, Type 2”, Evident Corp.) were internalized by COS cells that had been previously loaded with a calcium-sensitive dye with absorption ˜580 nm, emission ˜620 nm (Calcium Crimson; Invitrogen N. C-3018). Dye loading was performed according to the directions of the manufacturer, and electroporation was used to enhance nanoparticle uptake. Live cells were illuminated with a 405 nm laser and emission from the sample was collected through a narrow bandgap filter centered around 620 nm. […] Since the calcium-sensitive dye cannot be excited by the 405 nm laser, their activation is due to FRET from the nanoparticles. The image is a snapshot from a movie taken at mid-plane section of a cell via confocal microscopy.

[2] = target: complementary peptides EIAALEK-EIAALEK-EIAALEK / KIAALKE-KIAALKE-KIAALKE; conditions: heterodimer (78); read-out: dissociation constant; cited from earlier work
EGFP-cc = test: pull-down of EGFP-cc from cell lysate by functionalized nanoparticles, Western blot; format: binding; conditions: for pull-down / binding of EGFP-cc: lysate of cells expressing EGFP-cc, anti-EGFP Western blot
From the text: Nanoparticle synthesis and conjugation. Dye-doped silica nanoparticles containing the fluorescent dye tris (2,2′-bipyridine) dichlororuthenium (II) hexahydrate) (Ru(bpy)) were synthesized following the reverse microemulsion procedure described by Tan and coworkers (35). These particles are approximately 40 nm in diameter and can be dispersed in de-ionized water. To impart biocompatibility (stability in PBS and other physiological buffers), particles were coated with bovine serum albumin (BSA) by mixing the nanoparticles in aqueous solution with an equal volume of freshly prepared BSA solution (1% weight in water). The mixture was incubated at room temperature for 1 h, after which it was brought to a standard PBS concentration by addition of an appropriate amount of concentrated PBS solution (10× PBS) and left standing overnight at room temperature. Excess BSA was then removed by repeated cycles of centrifugation (12 min at 9,500 rpm), removal of the supernatant and resuspension in PBS (a step involving bath sonication for a few minutes).
Conjugation of the nanoparticles to the recognition domain peptide CGG-(KVSALKE)3, (SEQ ID NO: 44) which contains a three amino acid spacer (CGG) followed by three copies of the KVSALKE (SEQ ID NO: 1) heptad sequence (cc, custom synthesized by the MIT biopolymer lab) was achieved using commercial crosslinking chemistry. Amine groups on the surface of BSA-coated nanoparticles (there are 35 lysine groups accessible at the surface of each BSA molecule) were activated by transferring the nanoparticles to a solution of 10 μM or 100 μM freshly prepared MBS (an amine-to-thiol crosslinker, available from Pierce Biotechnology) in PBS. After 20 min incubation, nanoparticles were washed by centrifugation and resuspension in a conjugation buffer (PBS at pH 7 and 1 mM EDTA). Since the recognition peptide contains a cysteine (chosen for conjugation), reduction of possible disulfide bonds was performed (using TCEP reducing gel, Pierce Biotechnology) before addition to the activated nanoparticles. Conjugation was completed by adding the reduced peptide at a concentration of 10 μM or 100 μM to nanoparticles activated with MBS at the same respective concentrations. After peptide addition, nanoparticles were incubated overnight in a gently rotating tube at 4° C., after which they were washed 3 times in PBS.
HEK 293T cells were transiently transfected with a construct encoding either EGFP or the EGFP-cc construct containing (EVSALEK)4 (SEQ ID NO: 4) fused to the N-terminus of EGFP as described in Example 6. 2×10^6 cells were lysed in 200 μl Lysis buffer (PBS, pH7.4 with 1% Triton-X100) and afterwards diluted with 800 μl PBS to obtain 1 ml of cell lysate with 0.2% Triton-X100. Pull-down experiments were performed by incubating 100 μL of nanoparticles with 900 μL of cell lysate for one hour at 4° C. (with gentle rotation). Particles were then centrifuged (12 min at 9,500 rpm) and the supernatant removed. After brief washing of the pellet with 100 μL of PBS, particles were resuspended by sonication in 50 μL of PBS and the resulting solution analyzed by Western blot using antibodies to EGFP (Covance) according to standard methods.

TRPV3-EGFP-cc [3] = test: pull-down of engineered ion channel subunit TRPV3-EGFP-cc from cell lysate by functionalized nanoparticles, Western blot; format: binding, Mouse
Protocol: Nanoparticle synthesis and conjugation. These were performed as described in the previous example.
Pull-down experiments. These were performed essentially as described in the previous example except that (i) two different ratios of peptides/nanoparticle (10 μM or 100 μM peptide) were used to test their effect on binding ability; and (ii) lysates were made from cells that expressed engineered ion channel subunits TRPV3-EGFP-cc and TRPV3-EGFP, which are described in Example 6.

In the case of `NCCOB(c1ccccc1)c1ccccc1` [2APB], the “reversibility of the 2APB effect” value (TRPV3-EGFP) is reported as “quickly washed out”, the “response of cells to application of 2APB (whole-cell current)” value (TRPV3-EGFP; voltage ramp −100 mV to +100 mV, compared with TRPV3-cc) is reported as “responded similarly” and the “reversibility of the 2APB effect” value (TRPV3-EGFP-cc [1]) is reported as “quickly washed out”. The “response of cells to application of 2APB (whole-cell current)” value (TRPV3-EGFP-cc [1]; voltage ramp −100 mV to +100 mV, compared with TRPV3-EGFP) was “responded similarly”.

For `C/C=C(/C)C(=O)O[C@H]1C(C)=C2[C@H]([C@@H]1OC(=O)CCCCCCC)[C@@](C)(OC(C)=O)C[C@H](OC(=O)CCC)[C@@]1(O)[C@H]2OC(=O)[C@@]1(C)O` [thapsigargin], the “emission at 620 nm upon addition of compound (calcium signal by FRET)” value (COS cells) was “flashes of light (orange dots) were detected only in the immediate vicinity of the nanoparticles”.

In the case of “EIAALEK-EIAALEK-EIAALEK (SEQ ID NO: 5) and KIAALKE-KIAALKE-KIAALKE (SEQ ID NO: 6) (chain 1 EIAALEKEIAALEKEIAALEK; chain 2 KIAALKEKIAALKEKIAALKE; Complementary peptides) [IAAL-E3/K3 coiled-coil]”, the Kd [2] is listed as 70 nM.

For “NP-cc: BSA-coated Ru(bpy) dye-doped silica nanoparticles (~40 nm) conjugated to recognition peptide CGG-(KVSALKE)3 (SEQ ID NO: 44) (CGGKVSALKEKVSALKEKVSALKE; also: Cys crosslinked to BSA-coated Ru(bpy) dye-doped silica nanoparticles)”, the “dependence of amount of EGFP-cc pulled down on amount of peptide conjugated” value (EGFP-cc; different amounts of CGG-(KVSALKE)3 conjugated, data not shown) was “proportional to the number of heptad repeat peptides conjugated to the nanoparticles”, the “pull-down / binding of EGFP-cc” value (EGFP-cc) was “only NP-cc can pull down EGFP-cc; also recorded: confirm the binding” and the “pull-down / binding of EGFP-cc” value (EGFP-cc; listed as functionalized nanoparticles) was “strong band at the position expected for EGFP-cc”. The “pull-down of EGFP-cc” value (EGFP-cc; nanoparticles conjugated with 10 μm peptide) was “did not result in detectable pull-down”, the “pull-down of EGFP-cc” value (EGFP-cc; nanoparticles conjugated with 100 μm peptide) was “presence of EGFP-cc” and the “binding to ion channel subunit containing the complementary target domain” value (TRPV3-EGFP-cc [3]; lysate of cells expressing TRPV3-EGFP-cc, anti-EGFP Western blot) was “confirm the binding”. For the same molecule, the “pull-down of TRPV3-EGFP-cc” value (TRPV3-EGFP-cc [3]; nanoparticles conjugated with 10 μM peptide (lane 6)) was “only a small amount of pull-down”.
